Results as given in ChEMBL document CHEMBL1136331, “Photoregulation of deacylation rate of acyl trypsin derived from photoresponsive inverse substrate” (Bioorg Med Chem Lett, 2003).

Key:
[1] = Ratio of kinetic parameter (k2) to that of kinetic parameter(Ks)
[2] = Kinetic parameter for rate constant of acylation step (k2) was determined
[3] = Kinetic parameter for rate constant of deacylation step (k3) was determined

| k2/Ks [1] | k2 [2] | k3 [3] | SMILES |
| --- | --- | --- | --- |
| 164000 M⁻¹ s⁻¹ | 7.75 s⁻¹ | 0.000702 s⁻¹ | N=C(N)Nc1ccc(OC(=O)c2ccc(/N=N\c3ccccc3)cc2)cc1 |
| 151000 M⁻¹ s⁻¹ | 1.06 s⁻¹ | 0.000378 s⁻¹ | N=C(N)Nc1ccc(OC(=O)c2ccc(/N=N/c3ccccc3)cc2)cc1 |
